Assay results taken from patent publication US20130064878A1, “WOUND HEALING COMPOSITIONS AND METHODS” (UNIVERSITY OF NOTRE DAME DU LAC, priority 2011, published 2013).

Experiments:
[1] = test system: wounds of female diabetic db/db mice; assay: Excisional diabetic wound model, single 8-mm wound, topical treatment; assay type: in vivo, mouse
Text: (§1) Single excisional wounds 8-mm in diameter were made with a biopsy punch (Miltex, York, Pa., USA) using aseptic technique in the shaved dorsal regions of female diabetic db/db mice and female wild-type mice under isoflurane anesthesia. […] Wounds were photographed and immediately covered with a sterile dressing (3M Tegaderm™ Transparent Dressing, Butler Schein Animal Health, Inc., Dublin, Ohio). Cellulose acetate collars were made in-house from expired films and mounted on the wild-type mice to prevent them from disturbing the wounds on their back. […] On days 1, 3, 7, 10, and 14, digital photographs of wounds were taken while animals were under isoflurane anesthesia. […] The wounds with minimal surrounding healthy tissue were excised and either flash-frozen in liquid nitrogen for protein expression profiling or embedded in optimal cutting temperature (OCT) compound (Tissue-Tek, Torrance, Calif., USA) followed by cryosectioning for histological assessment.
(§2) Digital images were analyzed for wound areas using the NIH ImageJ version 1.45 software. Photographs of each wound were taken using a digital camera (Olympus SP-800UZ, Center Valley, Pa., USA), which was statically mounted on a tripod at a fixed distance above the mouse wound. A ruler was included in the photographic frame to allow ImageJ calibration. The wound outline was defined from the photographic image and the ImageJ software calculated the wound area. Wound closure was expressed as the change in wound area relative to that from day 0.
(§3) Wound closures are expressed as mean±SD (n=35 on day 1; n=28 on day 3; n=21 on day 7; n=14 on day 10; n=7 on day 14). Wound closures and levels of MMP-8 and MMP-9 were analyzed using a paired Student t-test; p<0.05 was considered statistically significant.
(§4) Fresh wound tissue was cut, embedded in OCT compound, and cryosectioned at a thickness of 12-μm in preparation for hematoxylin-eosin (H&E) staining. Morphological assessment of re-epithelialization was performed on a Nikon Eclipse 90i Fluorescent Microscope (Nikon Instruments Inc., Melville, N.Y., USA) (Tkalcevic et al., Toxicol. Pathol. 37 (2), 183-192 (2009)). In situ gelatin zymography was performed as described (Oh et al., J. Neurosci. 19 (19), 8464-8475 (1999)). Briefly, unfixed cryostat sections (12-μm-thick) of wound tissues were incubated in a reaction buffer (50 mM TBS pH 7.6) containing DQ-gelatin conjugate (Molecular Probes, Eugene, Oreg., USA) at 37° C. for 6 h. After fixation in 4% paraformaldehyde in PBS, cells were counterstained with DAPI (Molecular Probes, Eugene, Oreg., USA) and the images were visualized by fluorescence microscopy.

[2] = test system: gelatinase activity in wound tissues of diabetic mice; assay: In-situ gelatin zymography with DQ-gelatin (Example 5); assay type: in vivo, mouse; conditions: db/db mice; compared to vehicle
Description: as §4

[3] = test system: wounds of female wild-type mice; assay: Excisional wound model, single 8-mm wound, topical treatment, wild-type mice; assay type: in vivo, mouse
Text: as §1, §2, §3, §4

[4] = test system: animal models of cancer metastasis, stroke, hemorrhage, spinal cord and brain injury; conditions: prostate, breast cancer and T-cell lymphoma metastasis, ischemic stroke, subarachnoid hemorrhage, traumatic brain injury, testosterone-induced neurogenesis; cited from earlier work
[5] = test system: skin punch biopsy lesions of female diabetic mice (db/db mice); assay: Chronic wound model, two 6-mm skin punch biopsy lesions, topical treatment; assay type: in vivo, mouse
Description: Female diabetic mice (db/db mice, 9-10 weeks old, Jackson Laboratory, Bar Harbour, Me.) (n=10 per group) were prepared for aseptic surgery by clipping the hair on the dorsal thorax and scrubbing the skin with betadine followed by alcohol. […] Each wound was covered with an occlusive dressing following biopsy. The mice recovered on a cage with clean bedding on a heating pad. Mice received buprenorphine subcutaneously (1.5-2.5 mg/kg) at the conclusion of surgery and again 3-5 hours later. Mice were administered 0.5 mL of warm sterile saline intraperitoneally at the conclusion of surgery. […] Wound closure was determined every day for each animal using the initial and final wound diameters, with the percentage wound closure calculated as [(initial−final)/initial]×100.
On day 12, half of the mice (n=10) were sacrificed and the wounds of each animal excised. The remaining mice continued treatment at the dosages provided above once a day until day 23, when they were sacrificed On the day of sacrifice, the wounds of each mouse were excised, and analyzed by histology, gelatin zymography and Western blot, and in situ gelatin zymography.
Female diabetic mice (db/db mice; 9-10 weeks old, Jackson Laboratory, Bar Harbour, Me.) (n=10 per group) were prepared for aseptic surgery by clipping the hair on the dorsal thorax and scrubbing the skin with betadine followed by alcohol. […] Each wound was covered with an occlusive dressing following biopsy. The mice recovered on a cage with clean bedding on a heating pad. Mice received buprenorphine subcutaneously (1.5-2.5 mg/kg) at the conclusion of surgery and again 3-5 hours later. Mice were administered 0.5 mL of warm sterile saline intraperitoneally at the conclusion of surgery. […] Wound closure was determined every day for each animal using the initial and final wound diameters, with the percentage wound closure calculated as [(initial−final)/initial]×100.
Female diabetic mice (db/db mice) (n=10 mice per group, n=2 wounds per mouse, 9-10 weeks old, Jackson Laboratory, Bar Harbour, Me.) were prepared for aseptic surgery by clipping the hair on the dorsal thorax and scrubbing the skin with betadine followed by alcohol. […] Each wound was covered with an occlusive dressing following biopsy. The mice recovered on a cage with clean bedding on a heating pad. Mice received buprenorphine subcutaneously (1.5-2.5 mg/kg) at the conclusion of surgery and again 3-5 hours later. Mice were administered 0.5 mL of warm sterile saline intraperitoneally at the conclusion of surgery. […] Wound closure was determined every day for each animal using the initial and final wound diameters, with the percentage wound closure calculated as [(initial−final)/initial]×100.

[6] = test system: wound gelatinolytic activity; assay: In situ gelatin zymography of wound tissue (Example 3); assay type: in vivo, mouse; conditions: day 13; 0.25 mg/wound; compared to vehicle
Description: On day 7, half of the mice (n=10) were sacrificed and the wounds of each animal excised. […] On the day of sacrifice, the wounds of each mouse were excised, and analyzed by histology, gelatin zymography and Western blot, and in situ gelatin zymography. Specifically, one wound from each sacrificed animal was analyzed by in situ gelatin zymography, and one wound from each sacrificed animal was analyzed by gelatin zymography, followed by Western blot.
FIG. 2(A) is a graph of the wound closure measurements, determined every day of the study as [(initial−final)/initial]×100. […] FIG. 2(C) is a photograph of a representative skin lesion of a mouse treated with saline on day 13. […] Wound gelatinolytic activity is visualized using fluorescein isothiocyanate (FITC)-labeled substrate (right images), and 4′,6-diamidino-2-phenylindole (DAPI)-labeled […] (left images). […] Thus, gelatinolytic activity was suppressed in the gelatinase inhibitor-treated group (FIG. 2 (D)).

**Q.** With `Nc1ccc(Oc2ccc(S(=O)(=O)CC3CS3)cc2)cc1` (stereo not shown) [ND-322] as the compound, how does the “effect on wound healing compared to vehicle” value ([1]; 0.25 mg/wound/day topical) read?
**A.** accelerated wound healing

**Q.** And the wound closure ([1]; day 10, 0.25 mg/wound/day topical, n=14, p<0.05 vs vehicle)?
**A.** 70±16%

**Q.** And the “re-epithelialization (H&E staining)” value ([1]; day 14)?
**A.** complete re-epithelialization

**Q.** And the wound closure ([1]; day 14, 0.25 mg/wound/day topical, n=7, p<0.01 vs vehicle)?
**A.** 92±4%

**Q.** And the “difference in wound closure vs vehicle” value ([1]; days 1, 3, and 7, p>0.2)?
**A.** not statistically significant

**Q.** And the “gelatinase activity in wound tissues (in-situ zymography)” value [2]?
**A.** significantly decreased

**Q.** And the “effect on wound healing compared to vehicle” value ([3]; 0.25 mg/wound/day topical, p>0.25)?
**A.** did not accelerate healing

**Q.** What about the wound closure ([3]; day 7, 0.25 mg/wound/day topical, n=21) of the same compound?
**A.** 62±19%

**Q.** What about the wound closure ([3]; day 10, 0.25 mg/wound/day topical, n=14) of the same compound?
**A.** 82±11%

**Q.** What about the “re-epithelialization (H&E staining)” value ([3]; day 14) of the same compound?
**A.** completely re-epithelialized

**Q.** What about the wound closure ([3]; day 14, 0.25 mg/wound/day topical, n=7) of the same compound?
**A.** 96±4%

**Q.** Which results are given for `O=S(=O)(CC1CS1)c1ccc(Oc2ccccc2)cc1` (stereo not shown) [SB-3CT, 2-(((4-phenoxyphenyl)sulfonyl)methyl)thiirane]?
**A.** efficacy in animal models [4]: effective; wound closure ([5]; at 13-14 days, SB-3CT-treated db/db mice (0.25 or 1.25 mg/wound per day)): > 90%; wound closure ([5]; day 6, 0.25 mg/wound per day topical, vehicle DMSO, db/db mice): 49.6±14.0%; wound closure ([5]; day 6, 1.25 mg/wound per day topical, vehicle DMSO, db/db mice): 50.0±7.4%; difference in wound closure between vehicle and treated mice ([5]; starting on day 2, db/db mice, Example 1): Significant differences (p<0.05)

**Q.** Which results are given for `Nc1ccc(Oc2ccc(S(=O)(=O)CC3CS3)cc2)cc1` (stereo not shown) [p-amino SB-3CT]?
**A.** wound gelatinolytic activity (in situ gelatin zymography) [6]: suppression of gelatinolytic activity; difference in wound healing between treated and vehicle groups ([5]; Example 3, 0.25 mg/wound once per day, 13 days, vehicle saline): Significant differences in wound healing; wound closure ([5]; day 6, 0.25 mg/wound topical once per day, vehicle saline, db/db mice): 37.0±9.5%
